In US10239873B2, “7-azaindole or 4,7-diazaindole derivatives as IKKϵ epsilon and TBK1 inhibitor and pharmaceutical composition comprising same” (GREEN CROSS CORPORATION, priority 2015, dated 2019):

Target: T1, TBK1 (Homo sapiens, UniProt Q9UHD2)
T1 construct: purchased Promega (Invitrogen is also named in the same bracket) V4158; PR8031B; V3991 (not assigned to the two kinases)
T1 sequence (Q9UHD2 1-729): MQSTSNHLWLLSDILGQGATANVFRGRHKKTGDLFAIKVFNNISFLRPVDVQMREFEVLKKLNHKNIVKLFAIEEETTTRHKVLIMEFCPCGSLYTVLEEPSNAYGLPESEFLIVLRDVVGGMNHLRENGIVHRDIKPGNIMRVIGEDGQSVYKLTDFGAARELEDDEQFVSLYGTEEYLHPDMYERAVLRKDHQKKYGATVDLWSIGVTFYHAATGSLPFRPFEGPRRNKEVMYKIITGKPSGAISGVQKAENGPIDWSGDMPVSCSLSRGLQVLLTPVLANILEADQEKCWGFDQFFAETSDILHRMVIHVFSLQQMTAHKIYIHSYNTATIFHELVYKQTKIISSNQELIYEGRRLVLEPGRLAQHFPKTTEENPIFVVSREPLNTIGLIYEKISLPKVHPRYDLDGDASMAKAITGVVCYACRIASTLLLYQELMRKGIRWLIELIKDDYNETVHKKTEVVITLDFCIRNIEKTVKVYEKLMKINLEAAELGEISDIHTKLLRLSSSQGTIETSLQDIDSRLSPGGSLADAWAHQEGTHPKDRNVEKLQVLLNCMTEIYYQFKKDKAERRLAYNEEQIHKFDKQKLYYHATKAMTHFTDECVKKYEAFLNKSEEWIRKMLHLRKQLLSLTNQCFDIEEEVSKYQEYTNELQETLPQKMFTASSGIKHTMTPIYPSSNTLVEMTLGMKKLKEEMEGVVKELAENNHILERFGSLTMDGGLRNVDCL
Test: ADP-Glo Kinase Assay, inhibition activity on TBK1
Assay type: biochemical
Description: Inhibition activities on IKKϵ and TBK1 were evaluated using the compounds of Examples 1 to 250.
The inhibition activities on IKKϵ and TBK1 were measured by a luminometer, IKKϵ/TBK1 Kinase Enzyme System (Promega, Ca# V4158; Invitrogen, PR8031B, Promega, Ca# V3991) and ADP-Glo Kinase Assay using ADP-Glo™ Kinase Analysis Kit (Promega, Ca# V9101) and a kinase reaction buffer [40 mM Tris(pH 7.5), 20 mM MgCl2, 0.1 mg/mL BSA] in accordance with the manufacturer's protocol.

Structure (SMILES)	IC50 [nM]
COc1ccc(-c2cc3c(C4=CCN(C(=O)OC(C)(C)C)CC4)c[nH]c3nc2N)cc1OC [Example 224, tert-butyl 4-(6-amino-5-(3,4-dimethoxyphenyl)-1H-pyrrolo[2,3-b]pyridin-3-yl)-5,6-dihydropyridine-1(2H)-carboxylate]	> 10000
O=C(NC1CCCC1)N1CC=C(c2c[nH]c3ncc(-c4ccc(C(=O)N5CCOCC5)cc4)cc23)CC1 [Example 75, N-cyclopentyl-4-(5-(4-(morpholine-4-carbonyl)phenyl)-1H-pyrrolo[2,3-b]pyridin-3-yl)-5,6-dihydropyridine-1(2H)-carboxamide]	25
CC(C)(C)OC(=O)N1CC=C(c2c[nH]c3ncc(-c4ccc(N5CCCCC5)cc4)cc23)CC1 [Example 159, tert-Butyl 4-(5-(4-(piperidin-1-yl)phenyl)-1H-pyrrolo[2,3-b]pyridin-3-yl)-5,6-dihydropyridine-1(2H)-carboxylate]	600
O=C(NC1CCCC1)N1CC=C(c2c[nH]c3ncc(-c4ccc(S(=O)(=O)N5CCOCC5)cc4)cc23)CC1 [Example 61, N-cyclopentyl-4-(5-(4-(morpholinosulfonyl)phenyl)-1H-pyrrolo[2,3-b]pyridin-3-yl)-5,6-dihydropyridine-1(2H)-carboxamide]	86
CS(=O)(=O)c1ccc(-c2cnc3[nH]cc(C4=CCN(C(=O)NC5CCCC5)CC4)c3c2)cc1 [Example 51, N-cyclopentyl-4-(5-(4-(methylsulfonyl)phenyl)-1H-pyrrolo[2,3-b]pyridin-3-yl)-5,6-dihydropyridine-1(2H)-carboxamide]	51
O=C(NCc1ccco1)c1ccc(-c2cnc3[nH]cc(C4=CCN(C(=O)NC5CCCC5)CC4)c3c2)cc1 [Example 66, N-cyclopentyl-4-(5-(4-((furan-2-ylmethyl)carbamoyl)phenyl)-1H-pyrrolo[2,3-b]pyridin-3-yl)-5,6-dihydropyridine-1(2H)-carboxamide]	250
CCC(C)OC(=O)N1CC=C(c2c[nH]c3ncccc23)CC1 (stereo not drawn) [Example 141, sec-Butyl 4-(1H-pyrrolo[2,3-b]pyridin-3-yl)-5,6-dihydropyridine-1(2H)-carboxylate]	500
CC(C)(C)OC(=O)N1CC=C(c2c[nH]c3ncc(-c4ccc(S(C)(=O)=O)cc4)cc23)CC1 [Example 164, tert-Butyl 4-(5-(4-(methylsulfonyl)phenyl)-1H-pyrrolo[2,3-b]pyridin-3-yl)-5,6-dihydropyridine-1(2H)-carboxylate]	250
CC(C)NC(=O)N1CC=C(c2c[nH]c3ncc(-c4ccc(CN5CCOCC5)s4)cc23)CC1 [Example 34, N-isopropyl-4-(5-(5-(morpholinomethyl)thiophen-2-yl)-1H-pyrrolo[2,3-b]pyridin-3-yl)-5,6-dihydropyridine-1(2H)-carboxamide]	0.73
COc1ccc(-c2cnc3[nH]cc(-c4ccc(CC(=O)NC5CCCC5)cc4)c3c2)cc1OC [Example 246, N-cyclopentyl-2-(4-(5-(3,4-dimethoxyphenyl)-1H-pyrrolo[2,3-b]pyridin-3-yl)phenyl)acetamide 2,2,2-trifluoroacetate]	4100
COc1ccc(-c2cnc3[nH]cc(C4=CCN(C(=O)c5cccs5)CC4)c3c2)cc1S(=O)(=O)N1CCOCC1 [Example 203, (4-(5-(4-methoxy-3-(morpholinosulfonyl)phenyl)-1H-pyrrolo[2,3-b]pyridin-3-yl)-5,6-di hydropyridin-1(2H)-yl)(thiophen-2-yl)methanone]	39
CC(C)(C)OC(=O)N1CC=C(c2c[nH]c3ncc(-c4ccc(C(=O)N5CCOCC5)cc4)cc23)CC1 [Example 155, tert-Butyl 4-(5-(4-(morpholine-4-carbonyl)phenyl)-1H-pyrrolo[2,3-b]pyridin-3-yl)-5,6-dihydropyridine-1(2H)-carboxylate]	39
O=C(Cc1ccc(-c2c[nH]c3ncc(-c4ccc(CN5CCOCC5)s4)cc23)cc1)NC1CCCC1 [Example 248, N-cyclopentyl-2-(4-(5-(5-(morpholinomethyl)thiophen-2-yl)-1H-pyrrolo[2,3-b]pyridin-3-yl)phenyl)acetamide 2,2,2-trifluoroacetate]	2100

Further compounds by falling IC50, results first:

IC50 [nM]	Structure (SMILES)
8800	COc1ccc(-c2cnc3[nH]cc(C4=CN(C(=O)OC(C)(C)C)CCC4)c3c2)cc1OC [Example 245, tert-butyl 5-(5-(3,4-dimethoxyphenyl)-1H-pyrrolo[2,3-b]pyridin-3-yl)-3,4-dihydropyridine-1(2H)-carboxylate]
3500	Cc1ccc(C(=O)N2CC=C(c3c[nH]c4ncc(-c5ccc(S(C)(=O)=O)cc5)cc34)CC2)s1 [Example 211, (4-(5-(4-(methylsulfonyl)phenyl)-1H-pyrrolo[2,3-b]pyridin-3-yl)-5,6-dihydropyridin-1(2H)-yl)(5-methylthiophen-2-yl)methanone]
1700	CCCOc1ccc(-c2cnc3[nH]cc(C4=CCN(C(=O)OC(C)(C)C)CC4)c3c2)cc1 [Example 243, tert-butyl 4-(5-(4-propoxyphenyl)-1H-pyrrolo[2,3-b]pyridin-3-yl)-5,6-dihydropyridine-1(2H)-carboxylate]
1500	Nc1nc2[nH]cc(C3=CCN(C(=O)NC4CCCC4)CC3)c2cc1-c1ccc(CN2CCOCC2)s1 [Example 227, 4-(6-amino-5-(5-(morpholinomethyl)thiophen-2-yl)-1H-pyrrolo[2,3-b]pyridin-3-yl)-N-cyclopentyl-5,6-dihydropyridine-1(2H)-carboxamide]
250	O=C(NC1CCCC1)N1CC=C(c2c[nH]c3ncc(-c4cc(Cl)cc(C(=O)N5CCOCC5)c4)cc23)CC1 [Example 77, 4-(5-(3-Chloro-5-(morpholine-4-carbonyl)phenyl)-1H-pyrrolo[2,3-b]pyridin-3-yl)-N-cyclopentyl-3,6-dihydropyridine-1(2H)-carboxamide 2,2,2-trifluoroacetate]
200	CC(=O)Nc1cccc(-c2cnc3[nH]cc(C4=CCN(C(=O)OC(C)(C)C)CC4)c3c2)c1 [Example 240, tert-butyl 4-(5-(3-acetamidophenyl)-1H-pyrrolo[2,3-b]pyridin-3-yl)-5,6-dihydropyridine-1(2H)-carboxylate]
190	O=C(c1cccc(-c2cnc3[nH]cc(C4=CCN(C(=O)c5cccs5)CC4)c3c2)c1)N1CCOCC1 [Example 208, (4-(5-(3-(morpholine-4-carbonyl)phenyl)-1H-pyrrolo[2,3-b]pyridin-3-yl)-5,6-dihydropyridin-1(2H)-yl)(thiophen-2-yl)methanone]
190	CCS(=O)(=O)c1cccc(-c2cnc3[nH]cc(C4=CCN(C(=O)OC5CCCC5)CC4)c3c2)c1 [Example 174, Cyclopentyl 4-(5-(3-(ethylsulfonyl)phenyl)-1H-pyrrolo[2,3-b]pyridin-3-yl)-5,6-dihydropyridine-1(2H)-carboxylate]
180	COc1ccc(-c2cnc3[nH]cc(C4=CCN(C(=O)c5cccs5)CC4C)c3c2)cc1OC (stereo not drawn) [Example 213, (4-(5-(3,4-dimethoxyphenyl)-1H-pyrrolo[2,3-b]pyridin-3-yl)-5-methyl-5,6-dihydropyridin-1(2H)-yl)(thiophen-2-yl)methanone]
78	CC(C)(C)OC(=O)N1CC=C(c2c[nH]c3ncc(-c4cccc(S(C)(=O)=O)c4)cc23)CC1 [Example 162, tert-Butyl 4-(5-(3-(methylsulfonyl)phenyl)-1H-pyrrolo[2,3-b]pyridin-3-yl)-5,6-dihydropyridine-1(2H)-carboxylate]
73	CC1CN(C(=O)c2cccs2)CC=C1c1c[nH]c2ncc(-c3ccc(CN4CCOCC4)s3)cc12 (stereo not drawn) [Example 216, (5-methyl-4-(5-(5-(morpholinomethyl)thiophen-2-yl)-1H-pyrrolo[2,3-b]pyridin-3-yl)-5,6-dihydropyridin-1(2H)-yl)(thiophen-2-yl)methanone]
59	CNS(=O)(=O)c1cccc(-c2cnc3[nH]cc(C4=CCN(C(=O)OC(C)(C)C)CC4)c3c2)c1 [Example 163, tert-Butyl 4-(5-(3-(N-methylsulfamoyl)phenyl)-1H-pyrrolo[2,3-b]pyridin-3-yl)-5,6-dihydropyridine-1(2H)-carboxylate]
36	CC(C)OC(=O)N1CC=C(c2c[nH]c3ncc(-c4ccc(S(N)(=O)=O)cc4)cc23)CC1 [Example 150, Isopropyl 4-(5-(4-sulfamoylphenyl)-1H-pyrrolo[2,3-b]pyridin-3-yl)-5,6-dihydropyridine-1(2H)-carboxylate]
34	CNS(=O)(=O)c1cccc(-c2cnc3[nH]cc(C4=CCN(C(=O)c5cccs5)CC4)c3c2)c1 [Example 199, N-methyl-3-(3-(1-(thiophene-2-carbonyl)-1,2,3,6-tetrahydropyridin-4-yl)-1H-pyrrolo[2,3-b]pyridin-5-yl)benzensulfonamide]
